From paper PMC10498496, “Design and Synthesis of Poly(2,2′-Bipyridyl) Ligands for Induction of Cell Death in Cancer Cells: Control of Anticancer Activity by Complexation/Decomplexation with Biorelevant Metal Cations” (Inorganic Chemistry, 2023)
Like-named read-outs stand apart in the source and are kept apart here.

Key:
Assay type in all cases: cell-based, human
MOLT-4 cells = assay: MTT assay, cytotoxicity against MOLT-4 cells; details: MTT, 37 °C, read-out: EC50 against MOLT-4
Procedure: (§1) Second, we conducted the quantitative evaluation of the cytotoxicity of 1, 2, and 3 against various cancer cell lines by an MTT (3-(4,5-dimethylthiazol-2-yl)-2,5-diphenyltetrazolium bromide) assay. Jurkat, MOLT-4 (these two cell lines are human T-lymphocyte leukemia cells), and U937 (human lymphoma) cells (1.5 × 10^4 cells/well) were incubated in RPMI 1640 medium containing 10% FBS (fetal bovine serum) containing 1, 2, and 3 (0–25 μM) at 37 °C for 24 h, and then treated with the MTT reagent. A549 (human alveolar adenocarcinoma) and IMR-90 (normal human fetal lung fibroblast as model of normal cells) cells (1.5 × 10^4 cells/well) were incubated in DMEM (low glucose) with 10% FBS containing 1, 2, and 3 (0–25 μM), HeLa S3 (human epithelial carcinoma cells) cells (1.5 × 10^4 cells/well) were incubated in MEM with 10% FBS containing these ligands (0–25 μM) for 24 h at 37 °C and then treated with the MTT reagent.
(§2) • (a) Cytotoxic study. Jurkat cells, MOLT-4 cells, and U937 cells (1.5 × 10^5 cells/mL per one well) were incubated in 10% FBS RPMI 1640 medium containing 1 (0–25 μM), 2 (0–25 μM) , 3, cisplatin (0–100 μM), and actinomycin D (0–10 μM) under 5% CO2 at 37 °C for 24 h on 96 well plates (Watson), 0.5% MTT (3-(4,5-dimethyl-2-thiazolyl)-2,5-diphenyl-2H-tetrazolium bromide) reagent in PBS (10 μL) was then added to the cells. After incubation at 37 °C for 4 h, a formazan lysis solution (10% SDS in 0.01 N HCl) (100 μL) was added and the resulting solution was incubated overnight under the same conditions, followed by the measurement of absorbance at 570 nm with a microplate reader (BIO-RAD).

IMR-90 cells = assay: MTT assay, cytotoxicity against IMR-90 cells (model of normal cells); details: MTT, 37 °C, treated for 24 h, read-out: EC50 against IMR-90
Procedure: as §1
IMR-90 cells in DMEM medium with 10% FBS (1.5 × 10^5 cells/mL) were seeded in to 96 well plates and incubated for 24 h at 37 °C, MTT assays with poly(bpy) ligands and their metal complexes (0–100 μM), cisplatin (0–100 μM), and actinomycin D (0–10 μM) were performed following the same procedure described above. These experiments were carried out at least three times. • (b) MTT assay in the presence of a caspase inhibitor. Jurkat cells were pre-treated with Z-VAD-fmk (15 μM) for 3 h, a general caspases inhibitor, followed by the treatment with 1 (1 μM), BABTA-AM (12.5 μM) and cisplatin (50 μM), respectively, for 24 h, and then MTT assay was carried out as described above. • (c) For evaluation of the effect of metal ions on the cytotoxicity of 1, 2, BAPTA, and BAPTA-AM, these ligands were incubated with metal ions such as Cu(NO3)2, Zn(NO3)2, FeSO4, Co(NO3)2, and NiSO4 for 1 h, respectively, and added to Jurkat cells. The whole mixtures were incubated for 12, 24, and 48 h at [ligand] = 0.78–25 μM and at [M^2+] = 1.71–37.5 μM ([ligand]/[M^2+] = 1:1.5). The MTT assays were conducted as described above.

Jurkat cells = assay: MTT assay, cytotoxicity against Jurkat cells; details: MTT, 37 °C, read-out: EC50 against Jurkat (converted)
Procedure: as §1, §2

HeLa S3 cells = assay: MTT assay, cytotoxicity against HeLa S3 cells; details: MTT, 37 °C, read-out: EC50 against HeLa S3 (converted)
Procedure: Second, we conducted the quantitative evaluation of the cytotoxicity of 1, 2, and 3 against various cancer cell lines by an MTT (3-(4,5-dimethylthiazol-2-yl)-2,5-diphenyltetrazolium bromide) assay. Jurkat, MOLT-4 (these two cell lines are human T-lymphocyte leukemia cells), and U937 (human lymphoma) cells (1.5 × 10^4 cells/well) were incubated in RPMI 1640 medium containing 10% FBS (fetal bovine serum) containing 1, 2, and 3 (0–25 μM) at 37 °C for 24 h, and then treated with the MTT reagent. […]
HeLa S3 cells and A549 cells in MEM and DMEM medium with 10% FBS (1.5 × 10^5 cells/mL per one well) were seeded in to 96 well plates and incubated for 24 h, MTT assay of poly(bpy) ligands (0–25 μM), cisplatin (0–100 μM), and actinomycin D (0–10 μM) was performed according to the same procedure described above.

SMILES	EC50 (MOLT-4 cells; treated for 24 h) [µM]	EC50 (IMR-90 cells) [µM]	EC50 (Jurkat cells; treated for 24 h) [µM]	EC50 (HeLa S3 cells; treated for 24 h) [µM]	EC50 (MOLT-4 cells; Homo sapiens, MOLT-4, treated for 24 h) [µM]	EC50 (MOLT-4 cells; Homo sapiens, MOLT-4, treated for 48 h) [µM]	EC50 (IMR-90 cells; Homo sapiens, IMR-90) [µM]	EC50 (Jurkat cells; Homo sapiens, Jurkat, treated for 24 h) [µM]	EC50 (Jurkat cells; Homo sapiens, Jurkat, treated for 48 h) [µM]	EC50 (HeLa S3 cells; Homo sapiens, HeLa S3, treated for 24 h) [µM]	EC50 (HeLa S3 cells; Homo sapiens, HeLa S3, treated for 48 h) [µM]
N.N.[Cl][Pt][Cl] [cisplatin, reference compound]	14 ± 0.3	> 100	33 ± 0.2	29 ± 1.2							
c1ccc(-c2ccc(OCc3cc(COc4ccc(-c5ccccn5)nc4)cc(COc4ccc(-c5ccccn5)nc4)c3)cn2)nc1 [compound 1, 1,3,5-Tris(([2,2′-Bipyridin]-5-yloxy)methyl)benzene]					0.21 ± 0.36	< 0.1	> 100	0.14 ± 0.13	0.064	16 ± 0.33	2.8
